Test results: patent US10308631B2, “Selective anti-cancer compounds” (NATIONAL UNIVERSITY OF SINGAPORE, priority 2015, dated 2019)

Experiments:
HeLa cells (LC3 puncta) = experiment: Immunofluorescence analysis of LC3 puncta; assay type: cell-based, human; settings: 2.5 μM, 6 h
Protocol: HeLa cells, treated with either Compound 1 (a131) at 2.5 μM or DMSO for 6 h, were fixed in ice-cold methanol and subjected to immunofluorescence analysis using antibodies against LC3 and counterstained with diamidino-2-phenylindole (DAPI) to visualize the nucleus. The Merge boxes show both LC3 and DAPI staining. The bars represent 5 μm in length.
To confirm the results of the immunoblot analysis and the lysosome-mediated autophagy activity, HeLa cervical cancer cells as cultured above were treated with Compound 1 (2.5 μM, DMSO) or DMSO as a control for 6 h. The treated cells were fixed in ice-cold methanol and subjected to immunofluorescence analysis using antibodies against LC3 and counterstained with diamidino-2-phenylindole (DAPI) to visualize the nucleus.

SNU-16 = experiment: MTT growth inhibition (GI50); assay type: cell-based; settings: Homo sapiens, SNU-16, gastric cancer, 72 h
Protocol: Having shown that Compound 1 and its derivatives are effective against HeLa cervical cancer cells and human fibroblast BJ cell lines, Compound 1 was then tested against a panel of thirty different human cancer cells lines derived from gastric, colon, liver, breast, lung and cervical tumours and five different human normal cell lines, which were normal fibroblast cell lines (BJ normal, IMR90, WI38) and retinal pigmented epithelium cell lines (ARPE-19, hTert-immortalized RPE-1).
The cell lines detailed in Table 2, below, were cultured in the media shown and treated with Compound 1 at a range of different concentrations (from 0.1 μM to 10 μM) for 72 h in triplicate and a mean concentration value for Compound 1 to achieve 50% growth inhibition (GI50) in each cell line was determined by use of the MTT assay.
The MTT assay was performed by adding thiazolyl blue tetrazolium bromide (MTT reagent, Invitrogen) at a concentration of 0.5 mg/mL to each cell culture and the resulting mixture incubated for 4 h at 37° C. The medium was then removed, and the blue dye remaining in each well was dissolved in DMSO by mixing with a microplate mixer. The absorbance of each well at 540 nm and 660 nm was measured using a microplate reader (Benchmark plus, BIO-RAD). The optical density (OD) values were calculated by subtracting the absorbance at 660 nm from the absorbance at 540 nm. Mean OD values from control cells containing only DMSO treated wells were set as 100%. The resulting GI50 values (in μM) are set out in Table 2 below.

[1] = system: cancer cell lines (panel of thirty); experiment: MTT growth inhibition, mean over cancer cell line panel; assay type: cell-based; settings: Homo sapiens, 72 h
Protocol: FIG. 7 is a graphical representation showing that Compound 1 (a131) induces selective cell growth inhibitory effects in a broad spectrum of human cancer cells. A panel of cancer and normal cell lines were treated with Compound 1 (a131) for 72 h and a mean G150 value (the concentration required to achieve 50% growth inhibition) was determined. A Student's t-test indicated a statistically significant difference at p<0.05 (p=0.017) between normal cells and cancer cells treated with Compound 1 (a131). […]
The MTT assay was performed by adding thiazolyl blue tetrazolium bromide (MTT reagent, Invitrogen) at a concentration of 0.5 mg/mL to each cell culture and the resulting mixture incubated for 4 h at 37° C. […] The absorbance of each well at 540 nm and 660 nm was measured using a microplate reader (Benchmark plus, BIO-RAD). The optical density (OD) values were calculated by subtracting the absorbance at 660 nm from the absorbance at 540 nm. […]

SMILES: N#C/C(=C\c1cccc2cnccc12)c1c[nH]c2ccccc12 [Compound 1, (Z)-2-(1H-indol-3-yl)-3-(isoquinolin-5-yl)acrylonitrile]
- LC3 puncta formation (HeLa cells (LC3 puncta)): increased LC3 puncta formation
- GI50 (SNU-16): 1 µM
- GI50 [1]: 1.7 µM
